Assay results: patent EP0076669A1, “Novel 3-phenyl-1-indanamines, pharmaceutical compositions and methods of preparation” (KEFALAS A/S, priority 1981, dated 1983)

Assays:
[1] = tested on: tetrabenazine induced ptosis; assay: Tetrabenazine ptosis antagonism; format: in vivo; settings: Mus musculus, ip, 0.5 h; i.p., mice; tetrabenazine 40 mg/kg i.p. 30 min after test substance
Description: For insoluble substances the doses 0, 1/8, 1/32 and 1/128 of "i.^p. LD50" are used. 3 mice are used for each dose level. Thirty minutes after administration of test substance, tetrabenazine, 40 mg/kg, is injected i.p. Ptosis is evaluated 30 minutes after administration of tetrabenazine, the following rating scale being used: 0 = normal eyes, 1=1/4 closed eyes, 2 = 1/2 closed eyes, 3 = 3/4 closed eyes and 4 = completely closed eyes. Ptosis is evaluated 30 seconds after tilting the cage 3 times. The tilting is carried out in such a way that the animals slide along the floor of the cage.
The results are recorded as % inhibition of ptotic score calculated on the basis of the score of the control group. If ptotic score for the control group is < 10 the test is rejected and another is performed. The registration can also be done as an on line procedure.

potentiation of 5-HTP = assay: 5-HTP potentiation (5-HTP syndrome); format: in vivo; settings: Mus musculus, ip, 0.5 h; i.p., mice; 5-HTP 100 mg/kg i.v. 30 min after test substance; read-out: 5-HTP potentation,ED50
Description: The test substance is given i.p. or p.o. in the doses 10, 10, 2.5, 0.63 and 0 mg/kg. Three mice are used for each dose level. One of the groups on the highest dose is used as control of the compounds own effect. […] Thirty minutes after administration of test substance, 5-HTP, 100 mg/kg i.v. is given (injection time 5-10 sec.). After this 5-HTP dose the animals remain unaffected. If the animals have been pretreated with a substance, which inhibits the re-uptake of 5-HT, a 5-HTP syndrome will occur. This is characterized by the following symptoms: 1) excitation, 2) tremor, and 3) abduction of the hind limbs.
After the administration of 5-HTP the animals are observed for 15 minutes and each animal is given one point for each symptom present. Thus, the maximal score for a group consisting of 3 mice is 9.
The results are stated as fractions: 0/9, 1/9, 2/9 ..... 8/9, 9/9, where 0, 1, 2 ..... 8, 9 are the number of points per group after the dose in question.

[2] = target: T1, ^3H-DA uptake in striatal synaptosomes (Rattus norvegicus, UniProt P23977); assay: biochemical; format: biochemical, Rats; settings: rat striatal synaptosomes, 3H-DA 12.5 nM; read-out: Uptake Inhibition IC50 DA
T1 construct: the two corpura striata are dissected out and gently homogenized; from tissue; host or cells: rat corpus striatum, synaptosomal P2 fraction
T1 sequence (P23977 whole entry): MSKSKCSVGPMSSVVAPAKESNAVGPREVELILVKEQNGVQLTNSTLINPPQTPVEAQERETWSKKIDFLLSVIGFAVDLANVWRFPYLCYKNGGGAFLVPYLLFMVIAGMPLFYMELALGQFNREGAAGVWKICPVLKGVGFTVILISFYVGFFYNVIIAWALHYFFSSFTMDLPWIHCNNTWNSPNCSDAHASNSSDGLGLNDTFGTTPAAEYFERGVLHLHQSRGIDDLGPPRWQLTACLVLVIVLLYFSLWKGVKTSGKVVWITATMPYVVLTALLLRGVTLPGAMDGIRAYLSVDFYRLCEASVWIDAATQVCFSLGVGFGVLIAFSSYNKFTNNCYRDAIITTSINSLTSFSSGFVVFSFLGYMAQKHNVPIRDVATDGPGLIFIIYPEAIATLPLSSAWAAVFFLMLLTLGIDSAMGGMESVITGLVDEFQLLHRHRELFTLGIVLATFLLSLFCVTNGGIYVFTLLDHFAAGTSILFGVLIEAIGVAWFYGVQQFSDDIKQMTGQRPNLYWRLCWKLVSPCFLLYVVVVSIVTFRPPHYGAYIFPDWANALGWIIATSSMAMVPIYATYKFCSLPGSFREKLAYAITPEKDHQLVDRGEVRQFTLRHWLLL
Description: ^3H-DA uptake in striatal synaptosomes in vitro.
(§1) 0.32 M sucrose containing 1 mM Nialamide
Krebs-Ringer-phosphate buffer, pH 7.4
3,4-dihydroxyphenylethylamine [ethyl-1-^3H(N)] = ^3H-DA, spc. act. app. 15 Ci/mmol, New England Nuclear
(§2) Thomas Tissue Grinder, clearance 0.004-0.006 inch.
Rats are killed by a blow to their head, exsanguinated and their brains removed. The brain is placed on a precooled glassplate, and the two corpura striata are dissected out and gently homogenized in 40 volumes of ice cold 0.32 M sucrose containing 1 mM of nialamide using a hand homogenizer with teflon pestle. The P2-fraction (synaptosomal fraction) is obtained by centrifugation (600 g, 10 min., 25000 g, 55 min. 4 °C) and suspended in 40 volumes of a modified Krebs-Ringer-phosphate buffer, pH 7.4. To 200µl of the synaptosomal fraction on ice are added 3700 µl modified Krebs-Ringer-phosphate buffer - containing test compounds. After a preincubation at 37°C for 5 min. […] The incubation is terminated by filtering the samples under vacuum through Millipore filters with a wash of 5 ml buffer containing 10 µM of unlabelled DA. After solubilizing the filters in 1 ml of cellosolve the radioactivity is determined by liquid scintillation counting after the addition of 10 ml of Insta-Gel. The unspecific binding of ^3H-DA is determined by incubating control samples on ice instead of at 37 °C.
All experiments are performed in ttriplicate.
The mean of all control samples and ice samples are calculated.

[3] = target: T2, ^3H-5-HT uptake in synaptosomes (Rattus norvegicus, UniProt P31652); assay: Inhibition of 3H-5-HT uptake in synaptosomes in vitro; format: biochemical, Rats; settings: rat brain synaptosomes, 3H-5-HT 10 nM; read-out: Uptake Inhibition IC50 5-HT
T2 construct: Rest of the brain is gently homogenized (glass teflon homogenizer); from tissue; host or cells: rat brain without cerebellum, pons and medulla oblongata, synaptosomal P2 fraction
T2 sequence (P31652 whole entry): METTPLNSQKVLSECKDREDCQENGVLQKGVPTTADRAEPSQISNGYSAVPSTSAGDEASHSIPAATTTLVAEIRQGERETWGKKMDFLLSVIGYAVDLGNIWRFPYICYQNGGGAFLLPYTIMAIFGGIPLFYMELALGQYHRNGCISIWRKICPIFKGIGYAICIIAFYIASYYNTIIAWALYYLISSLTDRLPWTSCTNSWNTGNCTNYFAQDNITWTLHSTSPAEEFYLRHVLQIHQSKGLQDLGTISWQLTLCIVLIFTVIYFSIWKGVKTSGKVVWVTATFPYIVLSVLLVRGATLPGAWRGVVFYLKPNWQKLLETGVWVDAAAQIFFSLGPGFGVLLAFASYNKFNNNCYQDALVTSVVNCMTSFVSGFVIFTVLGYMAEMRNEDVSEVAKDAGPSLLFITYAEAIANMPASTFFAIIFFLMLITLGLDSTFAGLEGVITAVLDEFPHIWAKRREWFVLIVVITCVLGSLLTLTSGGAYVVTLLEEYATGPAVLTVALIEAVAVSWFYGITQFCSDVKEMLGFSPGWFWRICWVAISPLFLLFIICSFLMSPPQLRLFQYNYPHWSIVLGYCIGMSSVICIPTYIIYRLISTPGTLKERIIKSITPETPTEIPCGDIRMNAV
Description: Inhibition of ^3H-5-HT uptake in synaptosomes in vitro.
as §1
Krebs-Ringer-Phosphate buffer, pH 7.4
Millipore filters (HAWPO 2500, 0.45 µ)
5-hydroxy [G-^3H] tryptamine creatinine sulphate = ^3H-5-HT, spc. act. app. 10 Ci/mmol, The Radiochemical Centre, Amersham.
as §2
Rats are killed by a blow on the head and exsanguinated. The brain is quickly removed, rinsed for blood and placed on a cold plate. The cerebellum, pons and medulla oblongata are removed. Rest of the brain is gently homogenized (glass teflon homogenizer) in 40 volumes of ice cold 0.32 M of sucrose containing 1 mM of nialamide. The P2 fraction (synaptosomal fraction) is obtained by centrifugation (600 g, 10 min. and 25000 g, 55 min., 4°C) and suspended in 40 volumes of a modified Krebs-Ringer-Phosphate buffer, pH 7.4.
To 200µl of the synaptosomal suspension on ice are added 3700 µl modified Krebs-Ringer-phosphate buffer, pH 7.4, containing test substances. After preincubation at 37°C for 5 min., 100 µl of ^3H-5-HT (final concentration in the samples = 10 nM) are added and the samples are incubated for 10 min. at 37 °C. The incubation is terminated by filtering the samples under vacuum through Millipore filters with a wash of 5 ml buffer containing 10 µM of unlabelled 5-HT. After solubilizing the filters in I ml of cellosolve, 10 ml of Instagel are added, and the radioactivity is determined by liquid and scintillation counting. The unspecific binding and passive transport of ^3H-5-HT is determined by incubating control samples on ice instead of at 37°C. All experiments are performed in triplicate. The mean of all control samples are calculated.
The IC50- values are determined as the concentrations, at which the uptake are 50 per cent of the uptake in control sample -uptake in ice samples.

Compound: CN(C)C1CC(c2ccc(Cl)c(Cl)c2)c2ccccc21 (stereo not shown) [Lu 18-122-c]
- ED50 [1]: 14 µmol/kg
- ED50 (potentiation of 5-HTP): 10 µmol/kg
- IC50 [2]: 27 nM
- IC50 [3]: 0.37 nM
